Experimental data published in patent publication US10344060B2 (priority 2013, dated 2019).
Where two headings read alike, the source gives them in different places.

Key:
Assay in all cases: cell-based
[1] = target: hNav1.7 (Homo sapiens, UniProt Q15858); settings: read-out: IC50 (μM) Nav1.7
[2] = target: hNav1.5 (Homo sapiens, UniProt Q14524); settings: IonWorks Quattro, read-out: IC50 (μM) Nav1.5
[3] = target: hNav1.3 (Homo sapiens, UniProt Q9NY46); settings: IonWorks Quattro, read-out: IC50 (μM) Nav1.3
[4] = target: hNav1.4 (Homo sapiens, UniProt P35499); assay type: cell-based; settings: for IC50: IonWorks Quattro, read-out: IC50 (μM) Nav1.4; for Nav1.4/Nav1.7: ratio of IonWorks Quattro IC50 values
hNav1.4, sequence (P35499 whole entry): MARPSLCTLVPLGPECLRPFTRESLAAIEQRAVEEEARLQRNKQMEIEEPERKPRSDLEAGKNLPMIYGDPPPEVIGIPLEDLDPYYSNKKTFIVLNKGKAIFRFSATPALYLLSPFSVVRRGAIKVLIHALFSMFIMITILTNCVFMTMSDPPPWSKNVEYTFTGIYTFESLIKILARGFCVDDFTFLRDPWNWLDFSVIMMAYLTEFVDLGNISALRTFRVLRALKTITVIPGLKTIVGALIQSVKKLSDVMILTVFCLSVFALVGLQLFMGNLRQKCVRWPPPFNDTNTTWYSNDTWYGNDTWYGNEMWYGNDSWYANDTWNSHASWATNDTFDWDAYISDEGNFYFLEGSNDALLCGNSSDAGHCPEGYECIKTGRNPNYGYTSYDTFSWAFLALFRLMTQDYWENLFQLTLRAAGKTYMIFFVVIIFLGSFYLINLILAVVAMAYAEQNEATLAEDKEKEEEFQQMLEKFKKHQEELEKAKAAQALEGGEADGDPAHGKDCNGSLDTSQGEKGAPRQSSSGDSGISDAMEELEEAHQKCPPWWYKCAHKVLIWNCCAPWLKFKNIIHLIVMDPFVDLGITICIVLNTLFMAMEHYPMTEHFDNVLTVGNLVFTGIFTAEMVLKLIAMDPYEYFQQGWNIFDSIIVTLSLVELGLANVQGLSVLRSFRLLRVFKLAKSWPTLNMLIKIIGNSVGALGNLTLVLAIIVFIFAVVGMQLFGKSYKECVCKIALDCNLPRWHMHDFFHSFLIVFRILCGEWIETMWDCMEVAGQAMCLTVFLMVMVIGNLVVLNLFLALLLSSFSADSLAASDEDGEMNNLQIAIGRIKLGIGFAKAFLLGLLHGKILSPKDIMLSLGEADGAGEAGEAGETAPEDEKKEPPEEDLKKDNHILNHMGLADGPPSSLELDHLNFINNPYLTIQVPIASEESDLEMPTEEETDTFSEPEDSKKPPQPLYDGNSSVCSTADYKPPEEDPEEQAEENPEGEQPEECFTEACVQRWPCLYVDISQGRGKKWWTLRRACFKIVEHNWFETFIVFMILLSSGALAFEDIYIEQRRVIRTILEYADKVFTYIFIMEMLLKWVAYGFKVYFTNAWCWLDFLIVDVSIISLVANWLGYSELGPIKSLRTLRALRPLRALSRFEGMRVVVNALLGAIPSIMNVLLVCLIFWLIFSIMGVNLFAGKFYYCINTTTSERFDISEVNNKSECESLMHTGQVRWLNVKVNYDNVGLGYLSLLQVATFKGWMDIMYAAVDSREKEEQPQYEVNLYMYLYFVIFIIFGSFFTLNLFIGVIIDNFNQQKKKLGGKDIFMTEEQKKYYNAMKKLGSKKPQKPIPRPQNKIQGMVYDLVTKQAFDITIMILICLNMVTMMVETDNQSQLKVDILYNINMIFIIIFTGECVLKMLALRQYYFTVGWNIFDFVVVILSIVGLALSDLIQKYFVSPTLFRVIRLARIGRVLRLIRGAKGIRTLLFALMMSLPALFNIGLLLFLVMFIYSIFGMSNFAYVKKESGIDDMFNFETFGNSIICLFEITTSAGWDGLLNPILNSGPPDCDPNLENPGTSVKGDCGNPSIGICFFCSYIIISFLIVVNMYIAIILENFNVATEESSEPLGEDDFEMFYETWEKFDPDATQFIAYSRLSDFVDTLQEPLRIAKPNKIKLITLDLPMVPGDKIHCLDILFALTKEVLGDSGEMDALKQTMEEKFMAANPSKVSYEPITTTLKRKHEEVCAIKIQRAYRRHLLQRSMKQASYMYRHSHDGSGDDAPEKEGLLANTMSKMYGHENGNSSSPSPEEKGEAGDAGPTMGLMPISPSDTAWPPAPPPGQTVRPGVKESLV

hNav1.3, sequence (Q9NY46 whole entry): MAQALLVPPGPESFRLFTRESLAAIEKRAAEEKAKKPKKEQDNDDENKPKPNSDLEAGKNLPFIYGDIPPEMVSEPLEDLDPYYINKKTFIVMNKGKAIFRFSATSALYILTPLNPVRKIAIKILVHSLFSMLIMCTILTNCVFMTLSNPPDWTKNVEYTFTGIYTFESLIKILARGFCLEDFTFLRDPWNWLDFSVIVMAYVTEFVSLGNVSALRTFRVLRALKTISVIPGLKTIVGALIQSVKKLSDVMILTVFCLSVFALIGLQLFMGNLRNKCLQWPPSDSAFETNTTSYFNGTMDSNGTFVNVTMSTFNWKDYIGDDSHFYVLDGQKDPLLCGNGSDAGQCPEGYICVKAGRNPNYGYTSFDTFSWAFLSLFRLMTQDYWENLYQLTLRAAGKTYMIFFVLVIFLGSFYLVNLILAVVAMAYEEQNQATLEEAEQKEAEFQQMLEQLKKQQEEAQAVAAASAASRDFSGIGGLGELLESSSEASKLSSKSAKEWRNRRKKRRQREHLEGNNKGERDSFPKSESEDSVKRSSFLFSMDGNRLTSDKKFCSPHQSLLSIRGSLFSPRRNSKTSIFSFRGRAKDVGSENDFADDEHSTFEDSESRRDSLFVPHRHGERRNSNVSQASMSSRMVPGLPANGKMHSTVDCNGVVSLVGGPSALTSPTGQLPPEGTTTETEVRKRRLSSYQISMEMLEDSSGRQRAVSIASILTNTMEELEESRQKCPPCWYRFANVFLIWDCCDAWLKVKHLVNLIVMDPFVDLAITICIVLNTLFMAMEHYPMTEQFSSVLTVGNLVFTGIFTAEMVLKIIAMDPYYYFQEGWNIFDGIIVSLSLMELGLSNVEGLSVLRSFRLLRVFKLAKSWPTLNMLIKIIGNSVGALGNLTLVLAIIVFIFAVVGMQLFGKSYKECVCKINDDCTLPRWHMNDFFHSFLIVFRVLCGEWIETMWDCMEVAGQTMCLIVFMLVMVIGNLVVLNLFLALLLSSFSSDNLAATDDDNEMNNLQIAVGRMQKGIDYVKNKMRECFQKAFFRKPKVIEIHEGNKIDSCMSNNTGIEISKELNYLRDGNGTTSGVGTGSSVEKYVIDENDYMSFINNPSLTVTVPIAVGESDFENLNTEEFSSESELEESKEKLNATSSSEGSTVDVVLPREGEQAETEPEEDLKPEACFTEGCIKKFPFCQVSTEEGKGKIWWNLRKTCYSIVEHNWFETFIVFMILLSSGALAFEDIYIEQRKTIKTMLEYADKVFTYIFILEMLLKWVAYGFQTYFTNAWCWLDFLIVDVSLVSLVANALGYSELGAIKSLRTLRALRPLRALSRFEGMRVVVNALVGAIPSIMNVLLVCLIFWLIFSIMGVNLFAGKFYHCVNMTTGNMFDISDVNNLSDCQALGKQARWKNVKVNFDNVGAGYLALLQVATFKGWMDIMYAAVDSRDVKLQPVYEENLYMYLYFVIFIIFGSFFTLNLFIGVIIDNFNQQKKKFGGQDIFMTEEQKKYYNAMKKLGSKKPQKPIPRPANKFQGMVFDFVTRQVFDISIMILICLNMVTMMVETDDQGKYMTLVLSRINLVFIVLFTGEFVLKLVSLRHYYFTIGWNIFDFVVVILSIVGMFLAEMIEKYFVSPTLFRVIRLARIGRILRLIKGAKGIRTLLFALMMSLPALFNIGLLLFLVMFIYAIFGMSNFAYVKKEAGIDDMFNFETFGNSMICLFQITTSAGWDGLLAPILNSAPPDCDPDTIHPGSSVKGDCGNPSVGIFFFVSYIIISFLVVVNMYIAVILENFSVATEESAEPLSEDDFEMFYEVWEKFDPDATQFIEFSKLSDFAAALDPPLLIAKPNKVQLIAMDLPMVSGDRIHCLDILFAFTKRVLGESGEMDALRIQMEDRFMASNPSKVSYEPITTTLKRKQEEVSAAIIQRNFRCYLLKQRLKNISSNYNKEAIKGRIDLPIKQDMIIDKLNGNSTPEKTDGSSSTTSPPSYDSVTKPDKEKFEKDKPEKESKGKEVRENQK

With `CC[C@H](C)[C@H](NC(=O)[C@@H](NC(=O)[C@H](CCCCN)NC(=O)[C@H](CCCNC(=N)N)NC(=O)[C@@H]1CSSC[C@@H]2NC(=O)[C@H](C)NC(=O)[C@H](CCCNC(=N)N)NC(=O)[C@H](CCCCN)NC(=O)[C@H](CO)NC(=O)[C@H](CC(=O)O)NC(=O)[C@@H]3CSSC[C@H](NC(=O)[C@H](CCCNC(=N)N)NC(=O)[C@H](CC(C)C)NC(=O)CNC(=O)[C@H](CCC(=O)O)NC(=O)[C@H](CSSC[C@H](NC(=O)[C@H](C)N)C(=O)N[C@@H](CCC(N)=O)C(=O)N[C@@H](CCCCN)C(=O)N[C@@H](Cc4c[nH]c5ccccc45)C(=O)N[C@@H](CCSC)C(=O)N[C@@H](Cc4c[nH]c5ccccc45)C(=O)N[C@@H]([C@@H](C)O)C(=O)N3)NC2=O)C(=O)N[C@@H](CCCCN)C(=O)N[C@@H](CC(C)C)C(=O)N[C@@H](Cc2c[nH]c3ccccc23)C(=O)N1)[C@@H](C)CC)C(N)=O` [compound 3] the IC50 [1] was 0.004 µM, the IC50 ([2]; Table 6) was 3.1 µM and the IC50 ([3]; Table 6) was 0.04 µM. For the same compound, the IC50 ([4]; Table 6) was 0.07 µM and the Nav1.4/Nav1.7 ([4]; Table 6) was 18.
`CC[C@H](C)[C@H](NC(=O)[C@@H](NC(=O)[C@H](CCCCN)NC(=O)[C@H](CCCNC(=N)N)NC(=O)[C@@H]1CSSC[C@@H]2NC(=O)[C@H](C)NC(=O)[C@H](CCCNC(=N)N)NC(=O)[C@H](CCCCN)NC(=O)[C@H](CO)NC(=O)[C@H](CC(=O)O)NC(=O)[C@@H]3CSSC[C@H](NC(=O)[C@H](CCCNC(=N)N)NC(=O)[C@H](CC(C)C)NC(=O)CNC(=O)[C@H](CCC(=O)O)NC(=O)[C@H](CSSC[C@H](NC(=O)[C@@H](N)Cc4ccc(O)cc4)C(=O)N[C@@H](CCC(N)=O)C(=O)N[C@@H](CCCCN)C(=O)N[C@@H](Cc4c[nH]c5ccccc45)C(=O)N[C@@H](C)C(=O)N[C@@H](Cc4c[nH]c5ccccc45)C(=O)N[C@@H]([C@@H](C)O)C(=O)N3)NC2=O)C(=O)N[C@@H](CCCCN)C(=O)N[C@@H](CC(C)C)C(=O)N[C@@H](Cc2c[nH]c3ccccc23)C(=O)N1)[C@@H](C)CC)C(N)=O` [compound 7] gave an IC50 [1] of 0.094 µM, an IC50 ([2]; Table 6) greater than 5 µM and an IC50 ([3]; Table 6) of 0.16 µM. It also gave an IC50 ([4]; Table 6) of 0.28 µM and a Nav1.4/Nav1.7 ([4]; Table 6) of 3.
`CC[C@H](C)[C@H](NC(=O)[C@@H](NC(=O)[C@H](CCCCN)NC(=O)[C@H](CCCNC(=N)N)NC(=O)[C@@H]1CSSC[C@@H]2NC(=O)[C@H](C)NC(=O)[C@H](CCCNC(=N)N)NC(=O)[C@H](CCCCN)NC(=O)[C@H](CO)NC(=O)[C@H](CC(=O)O)NC(=O)[C@@H]3CSSC[C@H](NC(=O)[C@H](CCCNC(=N)N)NC(=O)[C@H](CC(C)C)NC(=O)CNC(=O)[C@H](CCC(=O)O)NC(=O)[C@H](CSSC[C@H](NC(=O)[C@@H](N)Cc4ccc(O)cc4)C(=O)N[C@@H](CCC(N)=O)C(=O)N[C@@H](CCCCN)C(=O)N[C@@H](Cc4c[nH]c5ccccc45)C(=O)N[C@@H](CCSC)C(=O)N[C@@H](C)C(=O)N[C@@H]([C@@H](C)O)C(=O)N3)NC2=O)C(=O)N[C@@H](CCCCN)C(=O)N[C@@H](CC(C)C)C(=O)N[C@@H](Cc2c[nH]c3ccccc23)C(=O)N1)[C@@H](C)CC)C(N)=O` [compound 8] was tested, and the IC50 [1] was 0.15 µM, the IC50 ([2]; Table 6) was greater than 5 µM and the IC50 ([3]; Table 6) was 0.94 µM. The IC50 ([4]; Table 6) was 0.69 µM and the Nav1.4/Nav1.7 ([4]; Table 6) was 5.
`CC[C@H](C)[C@H](NC(=O)[C@@H](NC(=O)[C@H](CCCCN)NC(=O)[C@H](CCCNC(=N)N)NC(=O)[C@@H]1CSSC[C@@H]2NC(=O)[C@H](C)NC(=O)[C@H](CCCNC(=N)N)NC(=O)[C@H](CCCCN)NC(=O)[C@H](CO)NC(=O)[C@H](CC(=O)O)NC(=O)[C@@H]3CSSC[C@H](NC(=O)[C@H](CCCNC(=N)N)NC(=O)[C@H](CC(C)C)NC(=O)CNC(=O)[C@H](CCC(=O)O)NC(=O)[C@H](CSSC[C@H](NC(=O)[C@@H](N)Cc4ccc(O)cc4)C(=O)N[C@@H](CCC(N)=O)C(=O)N[C@@H](CCCCN)C(=O)N[C@@H](Cc4c[nH]c5ccccc45)C(=O)N[C@@H](CCSC)C(=O)N[C@@H](Cc4c[nH]c5ccccc45)C(=O)N[C@@H](C)C(=O)N3)NC2=O)C(=O)N[C@@H](CCCCN)C(=O)N[C@@H](CC(C)C)C(=O)N[C@@H](Cc2c[nH]c3ccccc23)C(=O)N1)[C@@H](C)CC)C(N)=O` [compound 9] showed an IC50 [1] of 0.025 µM, an IC50 ([2]; Table 6) greater than 5 µM and an IC50 ([3]; Table 6) of 0.21 µM. The IC50 ([4]; Table 6) was 0.25 µM and the Nav1.4/Nav1.7 ([4]; Table 6) was 10.
Compound `CC[C@H](C)[C@H](NC(=O)[C@@H](NC(=O)[C@H](CCCCN)NC(=O)[C@H](CCCNC(=N)N)NC(=O)[C@@H]1CSSC[C@@H]2NC(=O)[C@H](C)NC(=O)[C@H](CCCNC(=N)N)NC(=O)[C@H](CCCCN)NC(=O)[C@H](C)NC(=O)[C@H](CC(=O)O)NC(=O)[C@@H]3CSSC[C@H](NC(=O)[C@H](CCCNC(=N)N)NC(=O)[C@H](CC(C)C)NC(=O)CNC(=O)[C@H](CCC(=O)O)NC(=O)[C@H](CSSC[C@H](NC(=O)[C@@H](N)Cc4ccc(O)cc4)C(=O)N[C@@H](CCC(N)=O)C(=O)N[C@@H](CCCCN)C(=O)N[C@@H](Cc4c[nH]c5ccccc45)C(=O)N[C@@H](CCSC)C(=O)N[C@@H](Cc4c[nH]c5ccccc45)C(=O)N[C@@H]([C@@H](C)O)C(=O)N3)NC2=O)C(=O)N[C@@H](CCCCN)C(=O)N[C@@H](CC(C)C)C(=O)N[C@@H](Cc2c[nH]c3ccccc23)C(=O)N1)[C@@H](C)CC)C(N)=O` [compound 11] has an IC50 [1] of 0.012 µM, an IC50 ([2]; Table 6) of 3.6 µM and an IC50 ([3]; Table 6) of 0.14 µM. It also gave an IC50 ([4]; Table 6) of 0.16 µM and a Nav1.4/Nav1.7 ([4]; Table 6) of 13.
For `CC[C@H](C)[C@H](NC(=O)[C@@H](NC(=O)[C@H](CCCCN)NC(=O)[C@H](CCCNC(=N)N)NC(=O)[C@@H]1CSSC[C@@H]2NC(=O)[C@H](C)NC(=O)[C@H](CCCNC(=N)N)NC(=O)[C@H](C)NC(=O)[C@H](CO)NC(=O)[C@H](CC(=O)O)NC(=O)[C@@H]3CSSC[C@H](NC(=O)[C@H](CCCNC(=N)N)NC(=O)[C@H](CC(C)C)NC(=O)CNC(=O)[C@H](CCC(=O)O)NC(=O)[C@H](CSSC[C@H](NC(=O)[C@@H](N)Cc4ccc(O)cc4)C(=O)N[C@@H](CCC(N)=O)C(=O)N[C@@H](CCCCN)C(=O)N[C@@H](Cc4c[nH]c5ccccc45)C(=O)N[C@@H](CCSC)C(=O)N[C@@H](Cc4c[nH]c5ccccc45)C(=O)N[C@@H]([C@@H](C)O)C(=O)N3)NC2=O)C(=O)N[C@@H](CCCCN)C(=O)N[C@@H](CC(C)C)C(=O)N[C@@H](Cc2c[nH]c3ccccc23)C(=O)N1)[C@@H](C)CC)C(N)=O` [compound 12], the IC50 [1] was 0.022 µM, the IC50 ([2]; Table 6) was greater than 5 µM and the IC50 ([3]; Table 6) was 0.15 µM. It also gave an IC50 ([4]; Table 6) of 0.26 µM and a Nav1.4/Nav1.7 ([4]; Table 6) of 12.
For `CC[C@H](C)[C@H](NC(=O)[C@H](CCCCN)NC(=O)[C@H](CCCNC(=N)N)NC(=O)[C@@H]1CSSC[C@@H]2NC(=O)[C@H](C)NC(=O)[C@H](CCCNC(=N)N)NC(=O)[C@H](CCCCN)NC(=O)[C@H](CO)NC(=O)[C@H](CC(=O)O)NC(=O)[C@@H]3CSSC[C@H](NC(=O)[C@H](CCC(=O)O)NC(=O)[C@H](CC(C)C)NC(=O)CNC(=O)[C@H](CCC(=O)O)NC(=O)[C@H](CSSC[C@H](NC(=O)[C@@H](N)Cc4ccc(O)cc4)C(=O)N[C@@H](CCC(N)=O)C(=O)N[C@@H](CCCCN)C(=O)N[C@@H](Cc4c[nH]c5ccccc45)C(=O)N[C@@H](CCSC)C(=O)N[C@@H](Cc4c[nH]c5ccccc45)C(=O)N[C@@H]([C@@H](C)O)C(=O)N3)NC2=O)C(=O)N[C@@H](CCCCN)C(=O)N[C@@H](CC(C)C)C(=O)N[C@@H](Cc2c[nH]c3ccccc23)C(=O)N1)C(=O)N[C@@H](Cc1cn(CCCOCCOCCOCCOCCOCCOCCOCCOCCOCCOCCN)nn1)C(N)=O` [compound 188], the IC50 ([2]; Table 9) was 20.1 µM, the IC50 ([3]; Table 9) was greater than 5 µM and the IC50 ([4]; Table 9) was greater than 5 µM. It also gave a Nav1.4/Nav1.7 ([4]; Table 9) of 1.
